This is an account of results in ChEMBL document CHEMBL1201862, “PubChem BioAssay data set” (2004).

The structures appear in SMILES notation.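 In this assay, cells in 96-well plates receive the compound at five concentrations for 48 hours. Endpoints are linearly interpolated between the surrounding concentrations. GI50 is the concentration that inhibits growth by half.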 Activity calls are given as the source filed them. Cut-off read from the data, not from the text of the source: active = GI50 up to about 1.1 µM and inactive = higher.

Test systems include SNB-78; KM-20L2; DMS-273; DLD-1; XF498; DMS-114; HOP-18; M19-MEL; RXF 631.
What all share (assay): NCI anticancer screen, dose series, 48 h

On to `COc1cccc2nc3cc(C)c(C)cc3nc12`, for which the GI50 in the assay on SNB-78 was > 100 µM (inactive); in the assay on KM-20L2 it was > 100 µM (inactive); in the assay with DMS-273, > 100 µM (inactive); in the assay with DLD-1, 79.1 µM (inactive); with XF498 it was > 100 µM (inactive); with DMS-114, > 100 µM (inactive). Further, the GI50 with HOP-18, in the assay on M19-MEL and in the assay on RXF 631 was > 100 µM (inactive) in each case.

As to `O=C(O)CCSC(=S)Nc1cccc(F)c1`, the GI50 in the assay with SNB-78 is 97.1 µM (inactive); with KM-20L2, 89.1 µM (inactive); in the assay on DMS-273, 46.9 µM (inactive); in the assay on DLD-1, 50.7 µM (inactive); with DMS-114, 19.6 µM (inactive); in the assay on HOP-18, > 100 µM (inactive). Further, the GI50 in the assay on M19-MEL was 28.2 µM (inactive).

Regarding `Nc1nnc2nc(CC(=O)/C=C/c3ccccc3)c(=O)[nH]n12`, the GI50 in the assay on SNB-78, in the assay on KM-20L2, in the assay with DMS-273, in the assay with DLD-1, with XF498 and with DMS-114 was > 100 µM (inactive) throughout. Besides, the GI50 with M19-MEL and with RXF 631 was > 100 µM (inactive) each time.

For `CCNC(=O)/C=C/CCC#Cc1ccc(-c2ccc(-c3cccs3)s2)s1`, the GI50 with SNB-78 is > 100 µM (inactive); in the assay on KM-20L2, > 100 µM (inactive); in the assay with DMS-273 it was > 100 µM (inactive); with DLD-1, > 100 µM (inactive); in the assay with XF498, 2.71 µM (inactive); in the assay with DMS-114 it was > 100 µM (inactive). For the same compound, the figures for the GI50 with HOP-18 and with M19-MEL were 4.82 µM (inactive) and > 100 µM (inactive), respectively.

In the case of `COc1ccc(C2NCCc3c2[nH]c2ccccc32)cc1` (stereo not drawn), the GI50 was > 100 µM (inactive) in the assay on KM-20L2; > 100 µM (inactive) in the assay on DLD-1; 28.1 µM (inactive) in the assay on XF498; 58.7 µM (inactive) in the assay with HOP-18; > 100 µM (inactive) with M19-MEL; 67 µM (inactive) in the assay with RXF 631.

On to `COc1cc2cc[n+](C)c(Cc3ccccc3)c2cc1OC`, for which the GI50 in the assay on SNB-78 is > 100 µM (inactive); in the assay with KM-20L2, > 100 µM (inactive); in the assay on DMS-273 it was > 100 µM (inactive); with DMS-114, 79.6 µM (inactive); in the assay on HOP-18, > 100 µM (inactive); in the assay with M19-MEL, > 100 µM (inactive).

For `CCOC(=O)/C(O)=C/c1cc(OC)cc(=O)o1`, the GI50 in the assay on SNB-78, in the assay with KM-20L2, in the assay on DMS-273, in the assay on DLD-1, in the assay with DMS-114 and with HOP-18 was > 100 µM (inactive) throughout. In the assay with M19-MEL, the GI50 was > 100 µM (inactive).

For `CC1CCc2c(sc3ncnc(N/N=C/c4ccc(Cl)cc4)c23)C1` (stereo not drawn), the values for the GI50 with KM-20L2, in the assay on DMS-273 and with DLD-1 were 22.8 µM (inactive), 37.4 µM (inactive) and 33.6 µM (inactive), respectively.

Take `CC1(CO)C(=O)OC12CCCCC2` (stereo not drawn): the GI50 with SNB-78, in the assay on DMS-273, with DLD-1, with XF498, in the assay with DMS-114 and with M19-MEL was > 100 µM (inactive) throughout. The GI50 with RXF 631 was > 100 µM (inactive).

As to `COc1ccc(C(=O)Nc2ccn(CCOC(=O)c3ccc(OC)cc3)c(=O)n2)cc1`, the GI50 is 76.2 µM (inactive) in the assay on SNB-78; > 100 µM (inactive) in the assay on KM-20L2; > 100 µM (inactive) in the assay on DMS-273; > 100 µM (inactive) in the assay on DLD-1; > 100 µM (inactive) with XF498; > 100 µM (inactive) in the assay with DMS-114. The GI50 in the assay with HOP-18, in the assay with M19-MEL and in the assay on RXF 631 was > 100 µM (inactive) in each case.

`CC(=O)NC(CCCN)C(=O)NCc1ccccc1` (stereo not drawn): the GI50 in the assay with SNB-78, with KM-20L2, with DMS-273, with DLD-1, in the assay on XF498 and in the assay with DMS-114 was > 100 µM (inactive) throughout. Besides, the GI50 in the assay on M19-MEL is > 100 µM (inactive).

As for `NC(=O)NC(=O)C1CCC(=O)N1S(=O)(=O)c1ccc(Cl)cc1` (stereo not drawn), the GI50 in the assay on KM-20L2, with DLD-1, with XF498, with DMS-114, with HOP-18 and with M19-MEL was > 100 µM (inactive) in each case. For the same compound, the GI50 in the assay with RXF 631 was > 100 µM (inactive).

As for `O=C1N2Cc3c4ccc5c3CN3C(=O)N6Cc7c(ccc(c7CN1C6(c1ccccc1)C23c1ccccc1)OCCOCCOc1cc(Br)c(Br)cc1OCCOCCO4)OCCOCCOc1cc(Br)c(Br)cc1OCCOCCO5` (stereo not drawn), the GI50 with SNB-78 was > 100 µM (inactive); with KM-20L2 it was > 100 µM (inactive); with DMS-273, > 100 µM (inactive); with DLD-1, 20.2 µM (inactive); with DMS-114, 41.2 µM (inactive); in the assay on HOP-18, > 100 µM (inactive). Further, the GI50 with M19-MEL and in the assay on RXF 631 was > 100 µM (inactive) throughout.

Consider `CC1=C(C(=O)Nc2cc(F)c(F)cc2F)C(c2ccc(N(C)C)cc2)C(C(=O)Nc2cc(F)c(F)cc2F)=C(C)N1`, for which the GI50 with SNB-78 was 17.7 µM (inactive); with KM-20L2, 34 µM (inactive); in the assay with DMS-273, 26.9 µM (inactive); in the assay on DLD-1, 34.9 µM (inactive); with DMS-114, 17.2 µM (inactive); in the assay with M19-MEL it was 38 µM (inactive). The GI50 in the assay with RXF 631 was 23 µM (inactive).

Consider `CSc1nc2c(nc(N)n2C2OC(CO)C(O)C(O)C2O)c(=O)n1C` (stereo not drawn), for which the GI50 with SNB-78, with KM-20L2, with DLD-1, with XF498, in the assay with DMS-114 and in the assay on HOP-18 was > 100 µM (inactive) each time. In addition, in the assay with M19-MEL, the GI50 was > 100 µM (inactive).

In the case of `COC(=O)c1ccccc1NC(=O)C(=O)CC(=O)c1ccccc1NC1=CC(=O)C(=O)c2ccccc21`, the GI50 is 7.66 µM (inactive) with SNB-78; 72.9 µM (inactive) in the assay with KM-20L2; 10.7 µM (inactive) in the assay on DMS-273; 4.57 µM (inactive) in the assay with DLD-1; 15.6 µM (inactive) in the assay on XF498; 1.71 µM (inactive) in the assay on DMS-114. Moreover, the GI50 in the assay on HOP-18 is 7.59 µM (inactive); in the assay with M19-MEL, 2.02 µM (inactive); with RXF 631 it was 26.5 µM (inactive).

In the case of `Cn1c(=O)c(NC(=O)C(Cl)(Cl)Cl)nc2ccccc21`, the GI50 in the assay with SNB-78, in the assay on KM-20L2, with DMS-273, in the assay on DLD-1, in the assay on XF498 and in the assay on DMS-114 was > 100 µM (inactive) in each case. Besides, the GI50 in the assay with M19-MEL and in the assay with RXF 631 was > 100 µM (inactive) in each case.

As for `C=CCN1C(=O)CS/C1=N\NC(=O)c1c(C)nc2sccn12`, the GI50 in the assay with KM-20L2, in the assay on DMS-273, with DLD-1, with XF498, with DMS-114 and in the assay with HOP-18 was > 100 µM (inactive) in each case. Also, the GI50 in the assay on M19-MEL and with RXF 631 was > 100 µM (inactive) throughout.

As to `CCN(CC)CCOC(=O)c1ccc(N)cc1.CCOC(=O)Nc1ccc(S(=O)(=O)OC)cc1.CCOC(=O)Nc1ccc(S(=O)(=O)OC)cc1.Nc1ccc(C(=O)O)c(O)c1`, the GI50 with SNB-78, with KM-20L2, with DLD-1, in the assay with DMS-114, in the assay on HOP-18 and in the assay with M19-MEL was > 100 µM (inactive) in each case. Also, the GI50 in the assay with RXF 631 is > 100 µM (inactive).

`CC(C)C1COC(C(C)(C)C2=N[C@@H](C(C)C)CO2)=N1` (stereo partly drawn): the GI50 in the assay with KM-20L2, in the assay on DMS-273, in the assay on DLD-1, in the assay with XF498, in the assay with DMS-114 and in the assay on HOP-18 was > 100 µM (inactive) each time. Besides, the GI50 with M19-MEL and in the assay on RXF 631 was > 100 µM (inactive) in each case.

Consider `CCOCC(=O)N[C@H]1CCc2cc(OC)c(OC)c(OC)c2-c2ccc(OC)c(=O)cc21`, for which the GI50 in the assay on SNB-78 was < 0.0147 µM (active); in the assay with KM-20L2, 0.0118 µM (active); with DMS-273, 0.0128 µM (active); in the assay with DLD-1, 0.019 µM (active); in the assay with XF498 it was 0.0138 µM (active); in the assay with DMS-114 it was 0.0148 µM (active). In the assay on M19-MEL, the GI50 is < 0.0202 µM (active).
